Counter-ions that a name gives are not always drawn.
The compounds below were run against T1, RIPK2 (Homo sapiens, UniProt O43353) (assay: Fluorescent polarization based binding assay at the ATP binding pocket of RIPK2). Conditions: full length FLAG His tagged RIPK2; competition with fluorescently labeled ATP competitive ligand (5 nM); mean of a minimum of 2 experiments.
T1 construct: Full length FLAG His tagged RIPK2 was purified from a Baculovirus expression system; FLAG (N); 6His (N); made in house; host or cells: Spodoptera frugiperda (Sf9) insect cells, baculovirus
T1 sequence (O43353 whole entry): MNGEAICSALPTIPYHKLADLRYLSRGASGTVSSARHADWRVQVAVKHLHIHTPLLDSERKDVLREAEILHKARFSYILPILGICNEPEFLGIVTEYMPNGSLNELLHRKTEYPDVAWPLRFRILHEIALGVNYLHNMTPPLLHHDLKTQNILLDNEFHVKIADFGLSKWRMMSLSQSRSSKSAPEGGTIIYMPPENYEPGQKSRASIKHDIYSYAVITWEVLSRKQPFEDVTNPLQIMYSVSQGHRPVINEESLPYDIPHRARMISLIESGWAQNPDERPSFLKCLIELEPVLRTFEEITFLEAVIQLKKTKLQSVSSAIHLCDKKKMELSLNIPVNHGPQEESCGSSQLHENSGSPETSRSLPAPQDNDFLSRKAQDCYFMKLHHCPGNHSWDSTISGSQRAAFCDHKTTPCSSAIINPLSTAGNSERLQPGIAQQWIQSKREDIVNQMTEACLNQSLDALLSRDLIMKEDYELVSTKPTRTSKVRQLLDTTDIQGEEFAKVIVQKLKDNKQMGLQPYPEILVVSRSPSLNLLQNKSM
Protocol: A fluorescent polarization based binding assay was developed to quantitate interaction of novel test compounds at the ATP binding pocket of RIPK2, by competition with a fluorescently labeled ATP competitive ligand. Full length FLAG His tagged RIPK2 was purified from a Baculovirus expression system and was used at a final assay concentration of twice the KDapparent. […] Both the enzyme and ligand were prepared in solutions in 50 mM HEPES pH7.5, 150 mM NaCl, 10 mM MgCl2, 1 mM DTT, and 1 mM CHAPS. Test compounds were prepared in 100% DMSO and 100 nL was dispensed to individual wells of a multiwell plate. Next, 5 ul RIPK2 was added to the test compounds at twice the final assay concentration, and incubated at rt for 10 min. Following the incubation, 5 ul of the fluorescent labeled ligand solution, was added to each reaction, at twice the final assay concentration, and incubated at rt for at least 10 min. Finally, samples were read on an instrument capable of measuring fluorescent polarization. Test compound inhibition was expressed as percent (%) inhibition of internal assay controls.
For concentration/dose response experiments, normalized data were fit and pIC50s determined using conventional techniques.
Gateway® LR cloning was used to site-specifically recombine RIPK2 downstream to an N-terminal FLAG-6His contained within the destination vector pDEST8-FLAG-His6 according to the protocol described by Invitrogen. Transfection into Spodoptera frugiperda (Sf9) insect cells was performed using Cellfectin® (Invitrogen), according to the manufacturer's protocol.

Row | IC50 | SMILES
1 | 3.98 nM | Cc1n[nH]c(Nc2ccnc3cc(OCC(C)O)c(S(=O)(=O)C(C)(C)C)cc23)c1C (racemic) [Example 1, 1-((6-(tert-Butylsulfonyl)-4-((3,4-dimethyl-1H-pyrazol-5-yl)amino)quinolin-7-yl)oxy)propan-2-ol]
2 | 3.16 nM | Cc1n[nH]c(Nc2ccnc3cc(OC[C@@H](C)O)c(S(=O)(=O)C(C)(C)C)cc23)c1C [2(R), (R)-1-((6-(tert-Butylsulfonyl)-4-((3,4-dimethyl-1H-pyrazol-5-yl)amino)quinolin-7-yl)oxy)propan-2-ol, hydrochloride]
3 | 3.16 nM | Cc1n[nH]c(Nc2ccnc3cc(OC[C@H](C)O)c(S(=O)(=O)C(C)(C)C)cc23)c1C [2(S), (S)-1-((6-(tert-butylsulfonyl)-4-((3,4-dimethyl-1H-pyrazol-5-yl)amino)quinolin-7-yl)oxy)propan-2-ol, hydrochloride]
4 | 6.31 nM | Cc1n[nH]c(Nc2ccnc3cc(OCC(C)(C)O)c(S(=O)(=O)C(C)(C)C)cc23)c1C [Example 4, 1-((6-(tert-Butylsulfonyl)-4-((3,4-dimethyl-1H-pyrazol-5-yl)amino)quinolin-7-yl)oxy)-2-methylpropan-2-ol]
5 | 5.01 nM | Cc1n[nH]c(Nc2ccnc3cc(OCC(F)F)c(S(=O)(=O)C(C)(C)C)cc23)c1C [Example 5, 6-(tert-Butylsulfonyl)-7-(2,2-difluoroethoxy)-N-(3,4-dimethyl-1H-pyrazol-5-yl)quinolin-4-amine]
6 | 3.98 nM | COCCCOc1cc2nccc(Nc3[nH]nc(C)c3C)c2cc1S(=O)(=O)C(C)(C)C [Example 6, 6-(tert-Butylsulfonyl)-N-(3,4-dimethyl-1H-pyrazol-5-yl)-7-(3-methoxypropoxy)quinolin-4-amine]
7 | 5.01 nM | Cc1[nH]nc(Nc2ccnc3cc(OCC(F)(F)F)c(S(=O)(=O)C(C)(C)C)cc23)c1C [Example 7, 6-(tert-butylsulfonyl)-N-(4,5-dimethyl-1H-pyrazol-3-yl)-7-(2,2,2-trifluoroethoxy) quinolin-4-amine]
8 | 15.8 nM | Cc1n[nH]c(Nc2ccnc3cc(F)c(S(=O)(=O)C(C)(C)C)cc23)c1C [Example 10, 6-(tert-Butylsulfonyl)-N-(3,4-dimethyl-1H-pyrazol-5-yl)-7-fluoroquinolin-4-amine]

— US9216965B2, “Amino-quinolines as kinase inhibitors” (GlaxoSmithKline Intellectual Property Development Limited, priority 2012, dated 2015)
